{"source": "patent EP0414895A1", "about": "“OROTATE OF $g(a)-AMINO-$g(b)-PHENYL-BUTYRIC ACID” (NAUCHNO-PROIZVODSTVENNOE OBIEDINENIE \"BIOLAR\", priority 1989, dated 1990)", "assay_type_in_all_cases": "in vivo", "key": {"Mäuse [1]": {"system": "Mäuse", "test": "Hypoxia in barochamber (11000 m), survival", "method": "Nach einer der Methoden wurden die Mäuse in der Barokammer untergebracht, die für die Höhe von II000 m über dem Meeresspiegel gehoben wurde. Die Hebung wurde mit einer Geschwindigkeit von 50 m/s verwirklicht. Der atmosphärische Tiefdruck wurde mit Hilfe der elektrischen Vakuumpumpe geschaffen.\nDie beanspruchte Verbindung, Natriumoxybutyrat und Pyrazetam wurden 60 min vor dem Versuch enteral eingeführt. Der Schutzeffekt wurde nach der Überlebensdauer eingeschätzt. Die Angaben sind in Tabelle I0 angeführt."}, "Mäuse [2]": {"system": "Mäuse", "test": "Hemic hypoxia by intraperitoneal Natriumnitrit, survival", "settings": "Natriumnitrit 200 mg/kg i.p. 15 min after compound", "method": "Die gemische Hypoxie wurde durch die intraperitoneale und subkutane Verabreichung von Natriumnitrit in einer Dosis von 200 mg/kg den Gruppen zu I0 […] I5 min nach der Einführung der Prüfverbindungen erzeugt. Die Angaben sind in der Tabelle I2 (bei der intraperitonealen Einführung von Natriumnitrit) und Tabelle I3 (bei der subkutanen Einführung von Natriumnitrit) angeführt."}, "Mäuse [3]": {"system": "Mäuse", "test": "Motor and orientation activity in photoelectric actometer", "settings": "counted 60 min from 10 min after dosing", "source_text": "Zur Bestimmung der sedativen Wirksamkeit wurde die motorische und Orientierungsaktivität und die motorische Fähigkeit in Versuchen an Mäusen und Ratten untersucht.\nDen Versuchstieren wurden die beanspruchte Verbindung, γ -Amino- β -phenylbuttersäurehydrochlorid und Pyrazetam eingeführt. Als Kontrolle diente die physiologische Lösung (0,9%ige NaCl-Lösung). Die Untersuchungen wurden an I0 bis I2 erwachsenen Tieren (Mäuse, Ratten) durchgeführt.\nBei der Bestimmung der motorischen und Orientierungsaktivität wurde jede Maus in einer Einzelkamner des photoelektrischen Aktometers untergebracht. Die motorische und Orientierungsaktivität wurde nach der Zahl der Impulse bestimmt, die beim Berühren der Aktometerkontakte durch das Tier entstanden. Das Zählen der Im pulse wurde I0 min nach der intraperitonealen Einführung der genannten Verbindungen begonnen und dauerte innerhalb von 60 min. Die Angaben sind in der Tabelle I angeführt."}, "Mäuse [4]": {"system": "Mäuse", "test": "Thresholds of emotional reactivity and aggressiveness on electric pain stimulation, mice", "source_text": "Es wurde auch die emotionelle Aktivität und Aggressivität der Tiere auf dem Wege der elektrischen Schmerzreizung untersucht.\nIn einer Kammer von 20 x 20 x 25 cm Ausmass, deren Boden - ein Metallgitter aus Stangen darstellt, wurde ein Paar Tiere untergebracht (männliche Mäuse) und es wurde der Wechselstrom durchgelassen. Die Spannung wurde dosenartig auf 5 V solange erhöht, bis der Strom das Piepsen (die Schwelle der emotionellen Reaktivität) und die Schlägerei der Tiere (die Schwelle der Aggressivität) auslöste. Jede Spannungsgrösse wurde innerhalb von 5 sec zweimal in einem Zeitabstand von 20 bis 50 Sekunden aufrechterhalten. Die Kontrolle des Benehmens der Tiere begann man I0 Minuten nach der Einführung der oben erwähnten Verbindungen. Die Angaben sind in Tabellen 3, 4 angeführt."}, "Ratten [5]": {"system": "Ratten", "test": "Thresholds of emotional reactivity and aggressiveness on electric pain stimulation, rats", "settings": "100,0 mg/kg"}, "Mäuse [6]": {"system": "Mäuse", "test": "Phenamin-induced hypermotility in actometer", "settings": "500 mg/kg + Phenamin 5 mg/kg i.p. 10 min later", "method": "Eis wurde die Wirkung der beanspruchten Verbindung auf den durch Phenamin ausgelöston Effekt der Veränderung der Hypermotorik untersucht. Phenamin wurde den Mäusen intraperitoneal in Dosen von 3 und 5 mg/kg I0 Minuten nach der enteralen oder intraperitonealen Einführung der beanspruchten Verbindung und des Pyrazetams eingeführt. Die Tiere wurden in der Kammer des photoelektrischen Aktometers untergebracht. Die motorische Aktivität wurde nach der Zahl der Impulse innerhalb von 60 Minuten bestimmt. Die Angaben sind in der Tabelle 6 angeführt."}, "Mäuse [7]": {"system": "Mäuse", "test": "Hypoxia in hermetically closed vessel, survival", "settings": "closed vessel 80 cm³", "source_text": "Nach der zweiten Methode wurden die Mäuse in einem hermetisch verschlossenen Gefäss von 80 cm³ Inhalt untergebracht, dabei wurde die Luft nicht abgesaugt, und es wurden keine CO₂-Sorptionsmittel zugegeben. Die Prüfverbindungen wurden I Stunde vor dem Beginn des Versuchs intraperitoneal eingeführt (siehe Tabelle II)."}, "Ratten [8]": {"system": "Ratten", "test": "Natriumäthaminal intoxication, sleep duration, rats", "settings": "500 mg/kg single + Natriumäthaminal 100 mg/kg i.p.", "method": "Ausserdem wurde die Wirkung der beanspruchten Verbindung auf die durch Natriumäthaminal erzeugte Intoxikation untersucht. Die Versuche wurden an männlichen Mäusen und Ratten in Gruppen zu 8 bis I0 Tieren angestellt. Natriumäthaminal wurde intraperitoneal in einner Dosis von I00 mg/kg I5 min nach der enteralen Verabreichung der beanspruchten Verbindung oder der Kontrollarzneimittel eingeführt. Es wurde die einmalige und chronische Einwirkung (während I2 bis I4 Tage einmal täglich) von der neuen Verbindung, γ -Amino- β - -phenylbuttersäurehydrochlorid und Pyrazetam untersucht. Es wurde die Dauer der Seitenlage - des Schlafs der Tiere bestimmt. Die Ergebnisse dieser Untersuchung sind in Tabelle 23 (für Mäuse) und 24 (für Ratten) angeführt."}, "[9]": {"settings": "100,0 mg/kg enteral 60 min before"}}}
{"compound": "O=C(O)CCCO", "note": "[Natriumoxybutyrat]", "values": [{"measurement": "Überlebensdauer", "setting": "Mäuse [1]; [9]", "result": "7,1±2,3 min"}, {"measurement": "Überlebensdauer", "setting": "Mäuse [1]; 200,0 mg/kg enteral 60 min before", "result": "10,1±1,9 min"}, {"measurement": "Überlebensdauer", "setting": "Mäuse [2]; 100,0 mg/kg", "result": "28,4±2,8 min"}, {"measurement": "Überlebensdauer", "setting": "Mäuse [2]; 200,0 mg/kg", "result": "43,0±2,3 min"}]}
{"compound": "NC(=O)CN1CCCC1=O", "note": "[Pyrazetam, I-Karbamidomethylpyrrolidon-2]", "values": [{"measurement": "Anzahl der Impulse im Aktometer", "setting": "Mäuse [3]; 100 mg/kg i.p.", "result": "342±18"}, {"measurement": "Anzahl der Impulse im Aktometer", "setting": "Mäuse [3]; 500 mg/kg i.p.", "result": "338±24"}, {"measurement": "Anzahl der Impulse im Aktometer", "setting": "Mäuse [3]; 1000 mg/kg i.p.", "result": "288±28"}, {"measurement": "Spannung in V, Schwelle der Agressivität", "setting": "Mäuse [4]; 100 mg/kg", "result": "28,4±2,4 V"}, {"measurement": "Spannung in V, Schwelle der Agressivität", "setting": "Mäuse [4]; 1000 mg/kg", "result": "26,7±2,5 V"}, {"measurement": "Spannung in V, Schwelle der emotionellen Reaktivität", "setting": "Mäuse [4]; 1000 mg/kg", "result": "20,7±2,4 V"}, {"measurement": "Spannung in V, die Schwelle der emotionnellen Reaktivität", "setting": "Ratten [5]", "result": "25,7±0,8 V"}, {"measurement": "Anzahl der Impulse im Aktometer innerhalb von 60 min", "setting": "Mäuse [6]", "result": "1872±66"}, {"measurement": "Überlebensdauer", "setting": "Mäuse [1]; [9]", "result": "3,4±0,6 min"}, {"measurement": "Überlebensdauer", "setting": "Mäuse [1]; 500,0 mg/kg enteral 60 min before", "result": "5,5±1,8 min"}, {"measurement": "Überlebensdauer", "setting": "Mäuse [1]; 1000,0 mg/kg enteral 60 min before", "result": "7,2±1,4 min"}, {"measurement": "Überlebensdauer", "setting": "Mäuse [7]; 100,0 mg/kg i.p. 1 h before", "result": "9,6±1,2 min"}, {"measurement": "Überlebensdauer", "setting": "Mäuse [7]; 500,0 mg/kg i.p. 1 h before", "result": "11,8±2,1 min"}, {"measurement": "Überlebensdauer", "setting": "Mäuse [7]; 1000,0 mg/kg i.p. 1 h before", "result": "13,6±1,8 min"}, {"measurement": "Überlebensdauer", "setting": "Mäuse [2]; 100,0 mg/kg", "result": "26,7±2,2 min"}, {"measurement": "Überlebensdauer", "setting": "Mäuse [2]; 500,0 mg/kg", "result": "34,2±3,6 min"}, {"measurement": "Überlebensdauer", "setting": "Mäuse [2]; 1000,0 mg/kg", "result": "38,8±4,2 min"}, {"measurement": "Schlafdauer", "setting": "Ratten [8]", "result": "204,6±21 min"}]}
